Experimental findings from paper PMC6158327, “Negative Allosteric Modulators of mGlu7 Receptor as Putative Antipsychotic Drugs” (Frontiers in Molecular Neuroscience, 2018) are described below.

One data set addresses T1, mGlu7 receptor (Homo sapiens, UniProt Q14831).
T1 construct: expressed in transfected cells
Kind of data set: HTRF cAMP assay: antagonism of L-Glu (EC80) inhibition of forskolin-stimulated cAMP accumulation (NAM profile). In kind it is cell-based. The settings on record: HEK 293 T-REx cells expressing mGlu7; 6.26 mM L-Glu (EC80); 5 μM forskolin; n = 3; read-out: IC50, antagonism of L-Glu inhibition of cAMP accumulation in the presence of forskolin. Here is the method: A homogeneous time-resolved fluorescence (HTRF) cAMP dynamic 2 (Cisbio, Codolet, France) assay was performed as previously described ([Chruścicka et al., 2015]) with recombinant cell lines. Briefly, HEK 293 T-REx cells stably expressing mGlu7 receptor, were collected and suspended in Hanks-HEPES buffer. The cell suspension was added to compounds solution with 5 μM of forskolin (final concentration). After 5 min incubation in 37°C, 5 μl of cAMP-d2 conjugate in lysis buffer was added and mixed with the 10 μl cell suspension by means of an automated pipetting system (Tecan Evo 200, Tecan, Mannedorf, Switzerland). Next, 5 μl anti-cAMP cryptate conjugate was added and the fluorescence at 620 and 665 nm was read after 1 h (Tecan Infinite M1000). The results are shown as the 665 nm/620 nm ratio multiplied by 10^4. The detected signal was inversely proportional to the concentration of cAMP in the sample. […] Each experiment was performed three times (n = 3), and each data point was in triplicate.

The nature of data set [1]: Pharmacokinetic study, brain concentration after i.p. injection. In kind it is in vivo, mouse (Albino Swiss). The settings on record: mouse; for AUC / Cmax / Tmax / half-life: Albino Swiss, ip, brain, 10 mg/kg i.p. The protocol: The mice were then perfused with 0.1M PBS to remove remaining blood from the body, and the brains were taken out for the analysis. Blood was centrifuged at 2000 rpm for 10 min at 4°C, and the plasma was collected and frozen at -80°C for further analysis.
Plasma and tissue samples from all drug-treated animals were thawed at room temperature prior to use. Standard protocol of sample preparation: 200 μl acetonitrile was added to the eppendorfs with 50 μl of studied plasma samples or tissue homogenate. Samples were mixed for 5 min on a mixer at 25°C and 1400 rpm. Tubes were then centrifuged at 2000 × g for 15 min at 4°C. About 180 μl of each supernatant was transferred into a plate well. Finally, each sample was injected into the column.
In calibration curve – serial dilution method, plasma was spiked with standard at different concentration levels. Acetonitrile was added. Mixed, centrifuged supernatant was taken.
Plasma and tissue samples from all drug-treated animals at selected time points are analyzed using previously developed a non-validated liquid chromatography-tandem mass spectrometry (LC-MS)/MS method.
LC/MS analysis was carried on a Bruker amaZon SL mass spectrometer using positive/ negative ion ESI mode. Chromatographic separation was achieved on a Ascentis Express C18 column, (5 cm × 2.1 mm, […], Supelco Technologies) at room temperature with a thermostatted column oven. A gradient elution of eluents A [acetonitrile (LiChrosolv, Reag. Ph Eur) +0.1% formic acid (Sigma–Aldrich, 98–100%)] and B (water +0.1% formic acid) was used for separation. The flow rate was set at 1 ml/min. The injection volume was 20 μl, and the time of injection was 4 min.
An Ion trap mass spectrometer (Bruker amaZon SL) was equipped with an electrospray source, operating in the positive/negative ion mode. Data were collected and processes using Bruker Quant Analysis software. Quantification of analytes was performed in SIM mode.

A further data set concerns the target Cytochrome P450 2C19 (Homo sapiens, UniProt P33261). Kind of data set: Cytochrome P450 inhibition, 2C19. In kind it is in vitro ADME.
Data set [2] concerns MK-801-induced hyperactivity. Put plainly: MK-801-induced hyperactivity. The data set is classed as in vivo, Albino Swiss mice. Conditions: 30 min prior to MK-801 (0.35 mg/kg, i.p.), mice. Here is the method: The locomotor activity was recorded individually for each animal in OPTO-M3 locomotor activity cages (Columbus Instrument) linked online to a compatible PC activity, as described previously by [Woźniak et al., 2016b]. Each cage (13 cm × 23 cm × 15 cm) was surrounded with an array of photocell beams. […] The locomotor activity was measured for 60 min immediately after MK-801 administration.

The test system of data set [3] is field potentials in frontal cortical slices. Put plainly: Electrophysiology: field potentials in frontal cortical slices, mGlu7 KO mice. Conditions: for Before-after effect of the drug on FP amplitude: KO animals; for S (factor proportional to the slope of the curve) / Uh (stimulation intensity evoking FP of half-maximum amplitude) / Vmax (maximum FP amplitude, Boltzmann fit): slices from mGlu7 KO mice, after 20 min drug superfusion. From the text:
Mice (wild and KO, approx. 25 g) were housed under a controlled light/dark cycle (light on: 0700–1900) and had free access to standard food and tap water. Mice were anesthetized with isoflurane (Aerrane, Baxter) decapitated, their brains were dissected and immersed in an ice-cold artificial cerebrospinal fluid (ACSF) of the following composition (in mM): NaCl (130), KCl (5), CaCl2 (2.5), MgSO4 (1.3), KH2PO4 (1.25), NaHCO3 (26), and glucose (10), bubbled with a mixture of 95% O2/5% CO2 to pH 7.4. Frontal cortical slices (bregma 1.9–1.4, 380 μm) were cut in a coronal plane using a vibrating microtome and they were stored at 32°C. A single slice was next transferred to the recording chamber (32°C ± 0.5°C) and superfused at 2.5 ml/min with a ACSF.
A bipolar stimulating electrode (FHC) was placed approx. 2 mm lateral to the midline and approx. 1.0 mm below the pial surface (in layer V) (Figure 1). Stimuli (duration: 0.2 ms) were applied at 0.033 Hz using a constant-current stimulus isolation unit (WPI). Field potentials (FPs) were recorded using glass micropipettes filled with ACSF (1–3 MΩ), which were placed approx. 0.2 mm below the cortical surface (in layer II/III). FPs were amplified (Axoprobe 1A, Axon Instruments), A/D converted at 10 kHz and stored using Micro1401 interface and Signal 4 software (CED).
The stimulus–response curves obtained for each slice were fit with the Boltzmann equation: Vi = Vmax/(1 + exp[(u - Uh)/-S]), where Vmax is the maximum FP amplitude; u is the stimulation intensity; Uh is the stimulation intensity evoking FP of half-maximum amplitude; S is the factor proportional to the slope of the curve; “exp” is exponentiation – mathematical operation. The results are expressed as the means ± SEM. Statistical analyses were carried out using t-test ([Tokarski et al., 2011]).
For each slice, at the beginning of the experiment an input-output curve was generated in ACSF. A stimulus-response (input-output) curve was made for each slice. […] One response was recorded at each stimulation intensity. […] Statistical analyzes were carried out using paired t-test and ANOVA.

Cytochrome P450 2C19, sequence (P33261 whole entry): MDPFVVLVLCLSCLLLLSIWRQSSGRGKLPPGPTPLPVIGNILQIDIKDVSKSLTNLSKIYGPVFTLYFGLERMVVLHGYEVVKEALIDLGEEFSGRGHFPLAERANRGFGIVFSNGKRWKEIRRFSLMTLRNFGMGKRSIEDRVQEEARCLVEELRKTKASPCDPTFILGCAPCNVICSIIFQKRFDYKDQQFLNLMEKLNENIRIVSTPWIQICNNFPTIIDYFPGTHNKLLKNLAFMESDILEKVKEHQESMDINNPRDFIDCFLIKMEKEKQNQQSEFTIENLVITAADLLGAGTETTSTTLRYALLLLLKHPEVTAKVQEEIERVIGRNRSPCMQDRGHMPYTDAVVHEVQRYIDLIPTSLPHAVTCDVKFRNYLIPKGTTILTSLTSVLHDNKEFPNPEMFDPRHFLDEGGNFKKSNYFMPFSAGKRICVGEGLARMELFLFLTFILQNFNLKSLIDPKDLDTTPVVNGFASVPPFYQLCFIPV
T1 sequence (Q14831 35-915): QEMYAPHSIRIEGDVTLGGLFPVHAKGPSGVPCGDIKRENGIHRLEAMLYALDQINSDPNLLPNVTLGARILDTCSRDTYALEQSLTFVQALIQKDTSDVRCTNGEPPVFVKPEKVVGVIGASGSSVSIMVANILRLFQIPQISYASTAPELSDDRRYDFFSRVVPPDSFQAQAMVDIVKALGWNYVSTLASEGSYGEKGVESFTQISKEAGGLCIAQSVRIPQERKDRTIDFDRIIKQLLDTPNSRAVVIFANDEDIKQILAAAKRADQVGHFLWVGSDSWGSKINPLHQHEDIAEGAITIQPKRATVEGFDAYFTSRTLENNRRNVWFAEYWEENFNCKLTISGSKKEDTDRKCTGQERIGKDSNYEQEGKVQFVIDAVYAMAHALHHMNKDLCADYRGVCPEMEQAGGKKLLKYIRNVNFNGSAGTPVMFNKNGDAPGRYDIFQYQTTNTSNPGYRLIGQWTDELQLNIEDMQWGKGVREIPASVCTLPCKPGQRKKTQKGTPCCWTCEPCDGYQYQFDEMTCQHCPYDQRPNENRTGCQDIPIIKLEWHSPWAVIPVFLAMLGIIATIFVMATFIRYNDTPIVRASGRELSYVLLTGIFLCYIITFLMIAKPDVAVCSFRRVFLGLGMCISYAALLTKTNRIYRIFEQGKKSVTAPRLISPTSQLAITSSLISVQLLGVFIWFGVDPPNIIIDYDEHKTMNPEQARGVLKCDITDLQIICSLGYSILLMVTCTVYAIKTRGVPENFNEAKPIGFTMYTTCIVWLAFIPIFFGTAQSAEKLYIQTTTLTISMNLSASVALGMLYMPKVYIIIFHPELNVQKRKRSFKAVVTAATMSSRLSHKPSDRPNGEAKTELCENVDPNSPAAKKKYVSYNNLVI

On to `CCc1nc2c(o1)CC(c1ccc(C)cc1C)CC2=O` (stereo not shown) [ADX71743, 6-(2,4-Dimethylphenyl)-2-ethyl-6,7-dihydro-4(5H)-benzoxazolone], for which the 50% inhibitory concentration (IC50) at mGlu7 receptor came to 440 nM. Moreover, in data set [1] (0,5 h after 10 mg/kg i.p.), the Concentration in brain is on record as 2,09 μM. The Concentration in brain in data set [1] (0,25 h after 10 mg/kg i.p.) was 3,38 μM. Also, the Concentration in brain in data set [1] (1 h after 10 mg/kg i.p.) is on record as 0,79 μM. Moreover, in data set [1] (2 h after 10 mg/kg i.p.), the Concentration in brain is 0,09 μM. In data set [1], the AUC is 2.27 µM·h, the concentration peaked (Cmax) at 3.38 µM, the Tmax worked out at 15 min and the half-life was 20.4 min. This molecule also had an IC50 against Cytochrome P450 2C19 of 3.3 to 10 µM. Moreover, the “Effect on MK-801-induced hyperactivity” value in data set [2] (5 mg/kg i.p.) was “decreased MK-801-induced hyperactivity in a statistically significant way”. Further, the “Effect on MK-801-induced hyperactivity” value in data set [2] (15 mg/kg i.p.) is given as “decreased MK-801-induced hyperactivity in a statistically significant way”. Further, in data set [3], the “Before-after effect of the drug on FP amplitude” value is recorded as 106%; the “S (factor proportional to the slope of the curve)” value is listed as 7.12 ± 0.41; the “Uh (stimulation intensity evoking FP of half-maximum amplitude)” value came out at 26.06 ± 1.18; the “Vmax (maximum FP amplitude, Boltzmann fit)” value turned out to be 2.36 ± 0.18.
In the case of `COc1ccc(-c2cc3onc(-c4ccncc4)c3c(=O)n2C)cc1` [MMPIP, 6-(4-Methoxyphenyl)-5-methyl-3-(4-pyridinyl)-isoxazolo(4,5-c)pyridin-4(5H)-one], the IC50 at mGlu7 receptor is 380 nM. Moreover, the Concentration in brain in data set [1] (0,5 h after 10 mg/kg i.p.) was 5,42 μM. Moreover, in data set [1] (0,25 h after 10 mg/kg i.p.), the Concentration in brain is 3,63 μM. Besides, the Concentration in brain in data set [1] (1 h after 10 mg/kg i.p.) was 2,44 μM. In addition, in data set [1] (2 h after 10 mg/kg i.p.), the Concentration in brain is given as 1,79 μM. Moreover, in data set [1], the AUC was 8.98 µM·h, the highest level (Cmax) was 5.42 µM, the Tmax was determined as 30 min and the half-life was 105 min. This molecule displayed an IC50 at Cytochrome P450 2C19 of less than 1.1 µM. For the same molecule, the “Effect on MK-801-induced hyperactivity” value in data set [2] (15 mg/kg i.p.) is reported as “significant reversal of MK-801-induced effect”. Moreover, in data set [3], the “Before-after effect of the drug on FP amplitude” value is 100,1%; the “S (factor proportional to the slope of the curve)” value was 8.6 ± 1.01; the “Uh (stimulation intensity evoking FP of half-maximum amplitude)” value was 22.1 ± 1.4; the “Vmax (maximum FP amplitude, Boltzmann fit)” value came out at 2.16 ± 0.2.

As usually defined, the IC50 is the point on the concentration scale where inhibition reaches its midpoint. The term AUC denotes concentration integrated over time. Low values mean low exposure, high ones high exposure. For orientation: Cmax means the maximum level reached in the sampled fluid or tissue. In general, Tmax refers to the time at which the peak concentration occurs. Usually half-life stands for the time needed for the level to fall by half in the phase considered.
